Among the data in ChEMBL document CHEMBL1140423, “(6,7-Dimethoxy-2,4-dihydroindeno[1,2-c]pyrazol-3-yl)phenylamines: platelet-derived growth factor receptor tyrosine kinase inhibitors with broad antiproliferative activity against tumor cells” (J Med Chem, 2005) are IC50 values, retold here.

For test [1], the target named is Platelet-derived growth factor receptor beta (Homo sapiens, UniProt P09619). The test is described as follows: Inhibitory activity against PDGFRbeta kinase.
The test system of test [2] is HUVEC. The test is described as follows: Antiproliferative activity against LSGS stimulated HUVEC. Format: functional, cell-based. Conditions: Homo sapiens.
For test [3], the system named is NCI-H460. The test is described as follows: Antiproliferative activity against human lung tumor cell line H460. It counts as functional, cell-based.
For test [4], the system named is LoVo. The test is described as follows: Antiproliferative activity against human colon tumor cell line LoVo. Format: functional, cell-based.
The subject of test [5] is LNCaP. The test is described as follows: Antiproliferative activity against human prostate tumor cell line LnCAP. Format: functional, cell-based.
Test [6] relates to PC-3. The test is described as follows: Antiproliferative activity against human prostate tumor cell line PC3. Format: functional, cell-based.
The test system of test [7] is T47D. Kind of test: Antiproliferative activity against human breast tumor cell line T47D. It counts as functional, cell-based.
The test system of test [8] is A-375. Kind of test: Antiproliferative activity against human melanoma tumor cell line A375. It counts as functional, cell-based.
Test [9] concerns ASPC1. Kind of test: Antiproliferative activity against human pancreatic tumor cell line AsPC1. Format: functional, cell-based.
Test [10] concerns U-87 MG. Kind of test: Antiproliferative activity against human glioma tumor cell line U87MG. Format: functional, cell-based, U-87MG ATCC.
The target in test [11] is Platelet-derived growth factor receptor alpha (Homo sapiens, UniProt P16234). Kind of test: Inhibitory activity against PDGFRalpha.
Test [12] has as its target Vascular endothelial growth factor receptor (Homo sapiens, UniProt P17948+P35916+P35968). Kind of test: Inhibitory activity against VEGFR. Format: protein assay.
The target in test [13] is Receptor tyrosine-protein kinase erbB-2 (Homo sapiens, UniProt P04626). Kind of test: Inhibitory activity against HER2.
For test [14], the target named is Fibroblast growth factor receptor 1 (Homo sapiens, UniProt P11362). The test is described as follows: Inhibitory activity against bFGFR1.
The target of test [15] is Cyclin-dependent kinase 1 (Homo sapiens, UniProt P06493). The test is described as follows: Inhibitory activity against CDK1.
The target of test [16] is Cyclin-dependent kinase 2 (Homo sapiens, UniProt P24941). Kind of test: Inhibitory activity against CDK2.
The target of test [17] is Cyclin-dependent kinase 4 (Homo sapiens, UniProt P11802). Kind of test: Inhibitory activity against CDK4.
In test [18] the target is Cyclin-dependent kinase 7 (Homo sapiens, UniProt P50613). The test is described as follows: Inhibitory activity against CDK7.
The target of test [19] is Proto-oncogene tyrosine-protein kinase Src (Homo sapiens, UniProt P12931). The test is described as follows: Inhibitory activity against c-SRC.
The target in test [20] is Tyrosine-protein kinase Fyn (Homo sapiens, UniProt P06241). The test is described as follows: Inhibitory activity against FYN.
Test [21] concerns the target cAMP-dependent protein kinase (PKA) (Homo sapiens, UniProt P22694+P17612+P22612). Kind of test: Inhibitory activity against PKA. It counts as protein assay.
In test [22] the target is Glycogen synthase kinase-3 (Homo sapiens, UniProt P49840+P49841). The test is described as follows: Inhibitory activity against GSK3. Format: protein assay.
Test [23] deals with Mitogen-activated protein kinase 1 (Homo sapiens, UniProt P28482). Kind of test: Inhibitory activity against MAPK.
In test [24] the target is Insulin receptor (Homo sapiens, UniProt P06213). Kind of test: Inhibitory activity against IRK.
For test [25], the target named is Focal adhesion kinase 1 (Homo sapiens, UniProt Q05397). The test is described as follows: Inhibitory activity against FAK.
Test [26] concerns the target Casein kinase II (Homo sapiens, UniProt P19784+P67870+P68400). Kind of test: Inhibitory activity against Casein Kinase 2. Format: protein-complex assay.
Test [27] can be described thus: Inhibitory activity against Calmodulin Kinase.

Molecules are shown by their SMILES. Where only a bound is given, the exact number is not on record here.

Platelet-derived growth factor receptor beta, sequence (P09619 whole entry): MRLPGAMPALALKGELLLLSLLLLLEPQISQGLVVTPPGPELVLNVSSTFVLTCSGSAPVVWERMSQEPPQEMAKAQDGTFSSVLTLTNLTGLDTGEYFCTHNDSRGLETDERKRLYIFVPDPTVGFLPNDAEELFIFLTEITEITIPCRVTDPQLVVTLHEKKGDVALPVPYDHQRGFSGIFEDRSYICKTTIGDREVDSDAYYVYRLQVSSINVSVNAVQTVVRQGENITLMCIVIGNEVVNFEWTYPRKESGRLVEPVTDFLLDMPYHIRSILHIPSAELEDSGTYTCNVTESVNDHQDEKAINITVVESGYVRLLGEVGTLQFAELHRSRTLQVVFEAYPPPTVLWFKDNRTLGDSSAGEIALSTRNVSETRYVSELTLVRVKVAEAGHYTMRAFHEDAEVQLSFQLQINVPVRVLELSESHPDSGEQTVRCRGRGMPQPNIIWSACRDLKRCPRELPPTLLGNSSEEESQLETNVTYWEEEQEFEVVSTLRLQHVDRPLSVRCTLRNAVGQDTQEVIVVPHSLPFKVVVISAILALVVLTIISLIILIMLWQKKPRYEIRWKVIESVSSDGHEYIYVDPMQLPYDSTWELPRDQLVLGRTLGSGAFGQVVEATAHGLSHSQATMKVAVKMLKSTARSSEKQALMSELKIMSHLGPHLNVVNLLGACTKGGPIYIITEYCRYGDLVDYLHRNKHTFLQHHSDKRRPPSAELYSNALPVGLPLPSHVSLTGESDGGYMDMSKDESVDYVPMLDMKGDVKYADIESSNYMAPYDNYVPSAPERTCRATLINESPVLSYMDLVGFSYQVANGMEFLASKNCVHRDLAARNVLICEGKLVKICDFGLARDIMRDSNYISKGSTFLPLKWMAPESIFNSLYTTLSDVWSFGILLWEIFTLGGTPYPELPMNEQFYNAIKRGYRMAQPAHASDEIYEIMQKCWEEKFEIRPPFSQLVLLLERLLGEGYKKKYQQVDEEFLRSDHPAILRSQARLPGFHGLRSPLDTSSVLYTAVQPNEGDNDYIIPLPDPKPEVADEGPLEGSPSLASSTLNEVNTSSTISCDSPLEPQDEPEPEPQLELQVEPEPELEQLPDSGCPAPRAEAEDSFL
Platelet-derived growth factor receptor alpha, sequence (P16234 whole entry): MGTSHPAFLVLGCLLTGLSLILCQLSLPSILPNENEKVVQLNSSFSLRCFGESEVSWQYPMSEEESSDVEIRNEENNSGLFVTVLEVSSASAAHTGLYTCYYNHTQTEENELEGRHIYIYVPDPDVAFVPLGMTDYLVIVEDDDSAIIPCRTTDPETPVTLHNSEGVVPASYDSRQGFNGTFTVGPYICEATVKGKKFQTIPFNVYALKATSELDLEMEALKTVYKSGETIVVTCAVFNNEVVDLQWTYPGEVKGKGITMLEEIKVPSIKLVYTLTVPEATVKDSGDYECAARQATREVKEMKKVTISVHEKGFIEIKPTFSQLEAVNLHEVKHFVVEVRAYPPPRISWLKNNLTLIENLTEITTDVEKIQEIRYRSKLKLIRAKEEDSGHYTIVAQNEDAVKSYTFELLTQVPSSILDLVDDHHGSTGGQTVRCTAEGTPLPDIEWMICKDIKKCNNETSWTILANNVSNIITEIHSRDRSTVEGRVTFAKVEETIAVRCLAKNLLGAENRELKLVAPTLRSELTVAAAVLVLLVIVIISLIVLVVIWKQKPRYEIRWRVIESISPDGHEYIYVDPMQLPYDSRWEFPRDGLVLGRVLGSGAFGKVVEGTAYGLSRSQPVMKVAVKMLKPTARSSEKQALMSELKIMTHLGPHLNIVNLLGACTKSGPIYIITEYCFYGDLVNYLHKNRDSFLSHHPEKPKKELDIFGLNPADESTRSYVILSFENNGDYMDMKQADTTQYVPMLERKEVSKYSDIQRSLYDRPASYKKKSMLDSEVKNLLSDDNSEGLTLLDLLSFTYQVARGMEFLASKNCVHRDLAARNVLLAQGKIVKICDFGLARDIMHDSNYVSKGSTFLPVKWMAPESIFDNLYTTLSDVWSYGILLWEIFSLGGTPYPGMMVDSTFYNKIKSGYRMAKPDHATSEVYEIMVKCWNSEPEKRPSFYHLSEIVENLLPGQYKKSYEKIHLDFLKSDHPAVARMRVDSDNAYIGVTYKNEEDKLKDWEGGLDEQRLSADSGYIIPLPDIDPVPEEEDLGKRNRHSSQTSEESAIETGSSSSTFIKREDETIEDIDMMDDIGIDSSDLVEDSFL
Cyclin-dependent kinase 4, sequence (P11802 whole entry): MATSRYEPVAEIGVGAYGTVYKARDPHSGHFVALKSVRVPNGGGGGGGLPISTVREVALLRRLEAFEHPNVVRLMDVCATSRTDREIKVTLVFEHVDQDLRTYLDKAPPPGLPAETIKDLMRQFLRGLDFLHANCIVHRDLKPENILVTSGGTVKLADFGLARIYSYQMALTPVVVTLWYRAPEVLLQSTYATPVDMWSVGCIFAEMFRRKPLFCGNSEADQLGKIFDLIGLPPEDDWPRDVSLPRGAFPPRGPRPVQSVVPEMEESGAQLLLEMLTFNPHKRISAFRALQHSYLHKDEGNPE
Cyclin-dependent kinase 1, sequence (P06493 whole entry): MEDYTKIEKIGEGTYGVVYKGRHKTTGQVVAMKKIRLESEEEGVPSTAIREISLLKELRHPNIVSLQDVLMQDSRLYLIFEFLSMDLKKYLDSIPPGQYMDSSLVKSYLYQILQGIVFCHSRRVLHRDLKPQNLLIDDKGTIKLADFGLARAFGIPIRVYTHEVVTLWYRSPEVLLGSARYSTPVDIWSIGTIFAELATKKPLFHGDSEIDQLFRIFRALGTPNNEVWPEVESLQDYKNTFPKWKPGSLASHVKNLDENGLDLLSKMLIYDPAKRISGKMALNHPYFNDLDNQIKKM
Casein kinase II, sequence (P67870 whole entry): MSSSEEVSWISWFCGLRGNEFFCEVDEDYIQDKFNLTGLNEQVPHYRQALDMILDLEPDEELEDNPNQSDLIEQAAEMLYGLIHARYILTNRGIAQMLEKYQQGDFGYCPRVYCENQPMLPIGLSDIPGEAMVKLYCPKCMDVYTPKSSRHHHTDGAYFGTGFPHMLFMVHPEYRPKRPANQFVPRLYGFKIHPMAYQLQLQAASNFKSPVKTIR
Casein kinase II, sequence (P68400 whole entry): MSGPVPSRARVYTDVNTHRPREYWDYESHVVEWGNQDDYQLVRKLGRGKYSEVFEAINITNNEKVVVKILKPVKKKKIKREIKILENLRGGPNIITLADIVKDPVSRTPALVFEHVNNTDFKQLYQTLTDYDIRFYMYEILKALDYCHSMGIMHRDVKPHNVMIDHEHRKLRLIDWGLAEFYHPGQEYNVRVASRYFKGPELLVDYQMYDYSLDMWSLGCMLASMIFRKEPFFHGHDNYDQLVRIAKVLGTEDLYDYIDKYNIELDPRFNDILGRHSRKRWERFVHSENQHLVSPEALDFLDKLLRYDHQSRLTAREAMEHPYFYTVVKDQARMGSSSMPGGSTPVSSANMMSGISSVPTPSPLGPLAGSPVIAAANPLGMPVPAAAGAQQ
Casein kinase II, sequence (P19784 whole entry): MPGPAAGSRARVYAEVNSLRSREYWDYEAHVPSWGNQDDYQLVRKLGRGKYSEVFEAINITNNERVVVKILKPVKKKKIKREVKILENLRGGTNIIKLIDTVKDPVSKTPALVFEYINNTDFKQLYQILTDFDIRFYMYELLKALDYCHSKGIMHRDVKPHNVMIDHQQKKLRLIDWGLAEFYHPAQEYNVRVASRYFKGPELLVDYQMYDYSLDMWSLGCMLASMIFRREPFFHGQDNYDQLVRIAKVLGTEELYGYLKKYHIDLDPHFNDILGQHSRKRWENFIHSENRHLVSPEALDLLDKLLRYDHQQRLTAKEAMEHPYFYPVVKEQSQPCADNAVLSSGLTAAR
Receptor tyrosine-protein kinase erbB-2, sequence (P04626 whole entry): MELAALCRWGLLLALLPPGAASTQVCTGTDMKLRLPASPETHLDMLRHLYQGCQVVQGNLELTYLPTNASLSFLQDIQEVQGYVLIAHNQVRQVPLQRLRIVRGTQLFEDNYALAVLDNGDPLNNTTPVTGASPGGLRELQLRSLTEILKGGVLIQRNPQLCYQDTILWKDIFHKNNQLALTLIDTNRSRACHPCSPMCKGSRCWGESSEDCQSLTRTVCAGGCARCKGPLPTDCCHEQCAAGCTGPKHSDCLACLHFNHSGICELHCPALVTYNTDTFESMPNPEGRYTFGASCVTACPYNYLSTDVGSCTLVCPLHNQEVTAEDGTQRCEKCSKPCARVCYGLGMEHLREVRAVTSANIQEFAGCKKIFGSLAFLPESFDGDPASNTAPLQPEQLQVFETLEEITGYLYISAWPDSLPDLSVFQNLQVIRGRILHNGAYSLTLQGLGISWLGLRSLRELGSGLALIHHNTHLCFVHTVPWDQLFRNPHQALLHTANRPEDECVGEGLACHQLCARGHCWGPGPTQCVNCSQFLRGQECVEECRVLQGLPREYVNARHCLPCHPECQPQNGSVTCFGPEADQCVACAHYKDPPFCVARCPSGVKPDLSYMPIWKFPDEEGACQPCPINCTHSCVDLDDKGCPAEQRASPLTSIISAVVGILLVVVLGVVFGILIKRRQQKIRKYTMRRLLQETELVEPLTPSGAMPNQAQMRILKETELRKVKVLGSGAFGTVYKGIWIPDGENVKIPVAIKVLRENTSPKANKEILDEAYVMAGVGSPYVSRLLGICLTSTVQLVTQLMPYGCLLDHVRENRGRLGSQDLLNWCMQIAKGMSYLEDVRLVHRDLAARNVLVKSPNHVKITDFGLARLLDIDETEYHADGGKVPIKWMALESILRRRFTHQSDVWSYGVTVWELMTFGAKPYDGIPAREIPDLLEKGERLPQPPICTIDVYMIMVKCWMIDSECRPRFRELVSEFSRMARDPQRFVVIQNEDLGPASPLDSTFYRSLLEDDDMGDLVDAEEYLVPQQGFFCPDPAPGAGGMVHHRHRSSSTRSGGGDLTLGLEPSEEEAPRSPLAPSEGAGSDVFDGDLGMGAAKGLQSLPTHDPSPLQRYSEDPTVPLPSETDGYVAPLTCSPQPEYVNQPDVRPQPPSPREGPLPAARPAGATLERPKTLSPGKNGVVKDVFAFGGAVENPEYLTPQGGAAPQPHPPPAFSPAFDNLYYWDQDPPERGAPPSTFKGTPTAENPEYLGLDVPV

A word on the IC50: it is the concentration that inhibits the measured activity by half. Read a low IC50 as inhibition by little substance. As for `COc1cc2c(cc1OC)-c1n[nH]c(Nc3cccc(C(=O)O)c3)c1C2`, in test [1], the IC50 was above 800 nM.

Take `COc1cc2c(cc1OC)-c1n[nH]c(Nc3cccc(Br)c3)c1C2`: the concentration for half-maximal inhibition (IC50) stood at 5 nM in test [1]; 1480 nM in test [2]; 6 nM in test [3]; 6 nM in [4]; 2 nM in test [5]; 18 nM in test [6]. The half-maximal inhibitory concentration (IC50) in test [7] was 37 nM; in test [8], 6 nM; in [9], 331 nM; in test [10], above 100000 nM.

As to `COc1cc2c(cc1OC)-c1[nH]nc(-c3ccccc3)c1C2`, the half-maximal inhibitory concentration (IC50) in test [1] was 17 nM; in test [2], 1390 nM; in test [3], 8400 nM; in [4] it was 2700 nM; in test [5], 1200 nM; in [6], 31200 nM. Further, the IC50 was 4410 nM in [7], 8850 nM in [8], 6820 nM in test [9] and above 50000 nM in test [10].

Consider `COc1cc2c(cc1OC)-c1n[nH]c(Nc3ccc(Cl)c(Cl)c3)c1C2`, for which 410 nM corresponded to half-maximal inhibition in test [1] (IC50).

Take `COc1cc2c(cc1OC)-c1n[nH]c(Nc3cccc(C)c3)c1C2`: the IC50 stood at 8 nM in [2]; 29 nM in [3]; 19 nM in [4]; 1 nM in [5]; 42 nM in test [7]; 15 nM in test [8]. The IC50 in test [9] was 4450 nM; in test [10] it was above 100000 nM.

Regarding `COc1cccc2c1Cc1c-2n[nH]c1Nc1ccccc1`, the IC50 in [2] came to 283 nM; in test [3] it was 2800 nM; in test [4], 798 nM; in test [5] it was 1700 nM; in test [6] it was 7340 nM; in [7] it was 4700 nM. The 50% inhibitory concentration (IC50) in test [8] is 1190 nM; in test [9] it was above 10000 nM; in test [10] it was above 100000 nM.

`COc1cc2c(cc1OC)-c1n[nH]c(Nc3ccc(Cl)cc3Cl)c1C2` gave a concentration for half-maximal inhibition (IC50) in test [1] of 5420 nM.

For the compound `COc1ccc2c(c1)-c1n[nH]c(Nc3ccccc3)c1C2`, the 50% inhibitory concentration (IC50) in [5] is 14400 nM; in test [6] it was above 10000 nM; in [7], above 10000 nM; in [8], above 50000 nM; in test [9] it was above 10000 nM; in test [10], above 100000 nM.

In test [1], `COc1cc2c(cc1OC)-c1n[nH]c(Nc3cc(Cl)cc(Cl)c3)c1C2` displayed a 50% inhibitory concentration (IC50) of 310 nM.

`COc1cc2c(cc1OC)-c1n[nH]c(Nc3cccc(Cl)c3)c1C2` came in with an IC50 in [10] of 24000 nM.

`COC(=O)c1cccc(Nc2[nH]nc3c2Cc2cc(OC)c(OC)cc2-3)c1` came in with a 50% inhibitory concentration (IC50) in test [1] of 33 nM.

Regarding `COc1cc2c(cc1OC)-c1n[nH]c(Nc3cc(Cl)ccc3Cl)c1C2`, the IC50 in [1] was found to be 6220 nM.

For the compound `COc1cccc(Nc2[nH]nc3c2Cc2cc(OC)c(OC)cc2-3)c1`, the half-maximal inhibitory concentration (IC50) in test [2] was 11 nM; in test [3] it was 4 nM; in test [4] it was 4 nM; in test [5] it was 5 nM; in [7], 33 nM; in test [8], 4 nM. Moreover, the IC50 in test [9] is 355 nM; in [10] it was above 100000 nM.

`COc1cc2c(cc1OC)-c1n[nH]c(Nc3cccc(F)c3)c1C2`: the IC50 in test [1] amounted to 4.2 nM; in test [2], 4870 nM; in [3], 10 nM; in test [4], 17 nM; in [5] it was 9 nM; in [6], 27 nM. Further, the concentration for half-maximal inhibition (IC50) in [7] was determined as 32 nM; in test [8], 7 nM; in test [9] it was 592 nM; in test [10], 13000 nM; in test [11] it was 45 nM; in test [12] it was 3100 nM. Also, the IC50 is above 10000 nM in test [13]; 45800 nM in [14]; above 100000 nM in test [15]; above 10000 nM in test [16]; above 100000 nM in [17]; 56700 nM in test [18]. Also, the concentration for half-maximal inhibition (IC50) in test [19] is 185 nM; in test [20], 378 nM; in test [21], above 100000 nM; in test [22], 13000 nM; in [23], above 100000 nM; in [24], above 100000 nM. Besides, the half-inhibitory concentration (IC50) in test [25] is above 100000 nM; in test [26], above 100000 nM; in [27], above 10000 nM.

Turning to `COc1cc2c(cc1OC)-c1n[nH]c(Nc3ccccc3)c1C2`, the IC50 in test [1] was determined as 9 nM; in test [2] it was 31 nM; in test [3], 353 nM; in [4], 124 nM; in test [5], 600 nM; in [6], 108 nM. Further, the IC50 in test [7] was determined as 420 nM; in test [8], 62 nM; in test [9], 2160 nM; in test [10] it was 21000 nM.

For the compound `COc1cc2c(cc1OC)-c1n[nH]c(Nc3cccc(C(F)(F)F)c3)c1C2`, the half-inhibitory concentration (IC50) worked out at 38 nM in test [1]; 2500 nM in test [2]; 31 nM in [3]; 28 nM in test [4]; 255 nM in test [5]; 21 nM in test [6]. For the same compound, the IC50 is 440 nM in [7], 35 nM in test [8], 290 nM in test [9] and above 100000 nM in [10].
